# Where two headings read alike, the source gives them in different places.
# Tests used:
# U937 cells [1] = assay: MTT cytotoxicity / growth rate assay; type: cell-based
# Description: Cytotoxicity analysis was determined by using the 3-(4,5-dimethylthiazol-2-yl)-2,5-diphenyltetrazolium bromide (MTT) dye reduction assay as previously described (Damiano J S, et al. Cell adhesion mediated drug resistance (CAM-DR): role of integrins and resistance to apoptosis in human myeloma cell lines. Blood. 1999 Mar. 1; 93(5):1658-67). For all cytotoxicity studies cells were exposed to both calcium modulating agents and tipifarnib simultaneously for 72 hours. After 72 hours at 37° C., 50 μl of MTT (Sigma Chemical) was added to each well and cells were incubated for an additional four hours. Plates were spun for 5 minutes at 1200 rpm in a Sorvall RT6000D table top centrifuge (Asheville, N.C.), supernatants were removed, and water-insoluble product was dissolved in 100 μl of 100% DMSO. Plates were shaken for 30 seconds and absorbance read at 540 nm on a Wallac Victor-2 1420 Multilabel Counter (PerkinElmer, Torrance, Calif.). All experiments were done in triplicate.
# The effects of the Ca^2+ channel inhibition, using La^3+ and Gd^3+, were tested on survival of U937 cells.
# TRPM2 = conditions: cited from earlier work
# TRPM7 = target: T1, TRPM7 (Homo sapiens, UniProt Q96QT4); conditions: cited from earlier work; for Inhibition of TRPM7 channels at 10 μM / Concentration required to inhibit TRPM7: HEK-293 cells
# T1 construct: host or cells: HEK-293 (heterologous expression, in the cited studies)
# T1 sequence (Q96QT4 whole entry, species assumed): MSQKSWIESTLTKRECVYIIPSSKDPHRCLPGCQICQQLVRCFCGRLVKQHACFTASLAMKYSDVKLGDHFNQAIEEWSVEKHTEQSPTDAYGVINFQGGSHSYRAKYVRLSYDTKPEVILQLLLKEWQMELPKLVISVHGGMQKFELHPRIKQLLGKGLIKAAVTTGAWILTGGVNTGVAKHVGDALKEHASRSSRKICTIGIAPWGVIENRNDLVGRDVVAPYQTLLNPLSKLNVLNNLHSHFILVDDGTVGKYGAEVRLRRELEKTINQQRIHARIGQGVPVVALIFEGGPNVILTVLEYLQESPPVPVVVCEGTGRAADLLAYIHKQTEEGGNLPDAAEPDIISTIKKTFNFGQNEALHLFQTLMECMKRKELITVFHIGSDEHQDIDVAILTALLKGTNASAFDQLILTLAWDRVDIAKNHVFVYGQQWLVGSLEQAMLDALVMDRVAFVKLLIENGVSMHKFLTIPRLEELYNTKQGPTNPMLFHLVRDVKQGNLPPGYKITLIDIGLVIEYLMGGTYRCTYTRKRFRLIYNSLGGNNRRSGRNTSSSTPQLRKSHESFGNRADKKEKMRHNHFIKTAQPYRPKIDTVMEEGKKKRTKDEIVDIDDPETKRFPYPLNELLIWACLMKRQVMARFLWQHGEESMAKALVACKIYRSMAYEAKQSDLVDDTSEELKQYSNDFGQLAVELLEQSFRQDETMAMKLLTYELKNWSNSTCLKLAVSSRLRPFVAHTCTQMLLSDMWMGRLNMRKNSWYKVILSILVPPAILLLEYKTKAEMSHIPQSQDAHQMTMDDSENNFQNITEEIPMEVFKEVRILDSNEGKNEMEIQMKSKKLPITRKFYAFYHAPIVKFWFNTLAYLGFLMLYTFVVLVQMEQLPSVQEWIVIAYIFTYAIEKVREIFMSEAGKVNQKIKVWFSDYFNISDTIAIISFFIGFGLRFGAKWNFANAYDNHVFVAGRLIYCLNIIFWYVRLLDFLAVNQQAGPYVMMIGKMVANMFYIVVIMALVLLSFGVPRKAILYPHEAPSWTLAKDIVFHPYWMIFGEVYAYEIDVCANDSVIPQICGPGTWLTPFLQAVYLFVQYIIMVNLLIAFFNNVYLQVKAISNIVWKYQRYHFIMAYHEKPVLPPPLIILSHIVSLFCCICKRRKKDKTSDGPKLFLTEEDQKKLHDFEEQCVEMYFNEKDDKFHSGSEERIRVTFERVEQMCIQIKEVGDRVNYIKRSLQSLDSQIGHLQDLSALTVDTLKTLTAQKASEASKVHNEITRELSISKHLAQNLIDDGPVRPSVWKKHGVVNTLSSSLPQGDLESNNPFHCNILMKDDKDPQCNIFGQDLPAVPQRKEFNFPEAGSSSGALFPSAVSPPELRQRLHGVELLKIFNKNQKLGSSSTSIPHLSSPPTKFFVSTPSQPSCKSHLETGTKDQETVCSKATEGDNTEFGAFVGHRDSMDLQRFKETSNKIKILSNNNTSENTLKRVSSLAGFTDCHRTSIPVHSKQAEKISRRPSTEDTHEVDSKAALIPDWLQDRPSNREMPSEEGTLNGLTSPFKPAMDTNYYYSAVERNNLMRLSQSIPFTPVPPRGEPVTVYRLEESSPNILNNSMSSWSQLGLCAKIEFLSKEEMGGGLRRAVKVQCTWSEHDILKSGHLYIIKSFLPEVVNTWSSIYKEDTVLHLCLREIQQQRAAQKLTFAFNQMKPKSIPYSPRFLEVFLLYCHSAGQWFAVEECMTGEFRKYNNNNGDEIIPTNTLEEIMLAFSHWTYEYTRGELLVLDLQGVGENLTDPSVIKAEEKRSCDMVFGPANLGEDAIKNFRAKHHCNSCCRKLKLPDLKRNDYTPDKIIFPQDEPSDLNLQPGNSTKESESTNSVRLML
# U937 cells [2] = assay: Cell death by ER stressors in suspension or fibronectin-adhered U937 cells; type: cell-based; conditions: for Cell death in suspension and fibronectin adhered tumor cells: FIGS. 2(a)-(c); for Difference in viability between suspension and fibronectin-adherent cells: concentration range tested
# Description: FIGS. 2(a)-(c) are graphs showing agents which evoke ER stress overcome cell adhesion mediated drug resistance in U937 cells. Percent of specific cell death induced in U937 cells in suspension (Suspension) or following adhesion to plates coated in fibronectin (Fibronectin) as a result of incubation in (A) tunicamycin, (B) thapsigargin, or (C) brefeldin A at the indicated concentrations.
# 8226 cells = assay: Fura-2 intracellular Ca2+ fluorometry in 8226 cells; type: cell-based, human
# Description: (§1) Fura-2 loading was carried out incubating the plated cells for 1 hour at room temperature in physiological saline solution (PSS) consisting of (in mM): 140 NaCl, 3 KCl, 2.5 CaCl2, 1.2 MgCl2, 7.7 glucose and 10 HEPES (pH to 7.2 with NaOH), which also contained 1 μM of the membrane permeable ester form of fura-2, acetoxymethylester (fura-2 AM) fura-2 acetoxymethylester (fura-2 AM, +0.1% DMSO) and 0.1% dimethyl sulfoxide (DMSO). The coverslips were then washed in PSS (fura-2-AM free) prior to the experiments being carried out.
# (§2) A DG-4 high-speed wavelength switcher (Sutter Instruments Co., Novato, Calif.) was used to apply alternating excitation light, and fluorescent emission was captured using a Sensicam digital CCD camera (Cooke Corporation, Auburn Hills, Mich.) and recorded with Slidebook 3.0 software (Intelligent Imaging Innovations, Denver, Colo.).
# 8226/R5 cells = assay: Fura-2 intracellular Ca2+ fluorometry in tipifarnib-resistant 8226/R5 cells; type: cell-based, human; conditions: 5 μM tipifarnib with 100 μM 2-APB
# Description: as §1, §2
# Orai 1 channels = Orai 1 channels (Homo sapiens, UniProt Q96D31); conditions: endogenously and exogenously expressed; cited from earlier work
# Sequence of Orai 1 channels (Q96D31 whole entry): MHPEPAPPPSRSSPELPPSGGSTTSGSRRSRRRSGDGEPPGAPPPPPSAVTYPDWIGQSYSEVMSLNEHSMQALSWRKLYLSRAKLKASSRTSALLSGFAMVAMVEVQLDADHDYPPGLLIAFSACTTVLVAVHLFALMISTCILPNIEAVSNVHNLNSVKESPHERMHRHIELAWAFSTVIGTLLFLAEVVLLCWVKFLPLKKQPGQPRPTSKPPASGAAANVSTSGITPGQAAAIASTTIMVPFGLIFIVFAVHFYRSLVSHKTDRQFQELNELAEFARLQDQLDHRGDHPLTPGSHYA
# Orai2 = Orai2 (Homo sapiens, UniProt Q96SN7); conditions: cited from earlier work
# Sequence of Orai2 (Q96SN7 whole entry, species assumed): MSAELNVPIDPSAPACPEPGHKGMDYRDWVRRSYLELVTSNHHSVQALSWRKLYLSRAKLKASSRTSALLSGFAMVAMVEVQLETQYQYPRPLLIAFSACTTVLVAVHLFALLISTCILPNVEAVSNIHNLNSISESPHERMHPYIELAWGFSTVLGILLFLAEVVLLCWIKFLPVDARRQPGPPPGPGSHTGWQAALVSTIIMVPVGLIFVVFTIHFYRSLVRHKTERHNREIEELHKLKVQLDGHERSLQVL
# Orai3 channels = Orai3 channels (Homo sapiens, UniProt Q9BRQ5); conditions: up to 200 μM; cited from earlier work
# U937 cells [3] = conditions: 5 μM tipifarnib, adhered U937 cells, p<0.001
# Description: as §1, §2
# (§3) Therefore, the effects of tipifarnib on intracellular Ca^2+ concentrations in tumor cells were studied in adhered U937 leukemic cells using fura-2 mediated Ca^2+ fluorometry.
# U937 cells [4] = assay: Fura-2 intracellular Ca2+ fluorometry in adhered U937 cells; conditions: 5 μM tipifarnib, 10 μM FTI-277, 10 μM FTI-2153
# Description: as §1, §2, §3
compound,measurement,setting,value
"[Cl][La]([Cl])[Cl] [La^3+, lanthanum chloride]",Effect of modulator on tipifarnib-induced growth inhibition / cell survival,"U937 cells [1]; U937 cells, MTT, 72 hours, 200 nM La3+, Gd3+ 100, ruthenium red 100 nM, 2-APB 5 μM and 100 μM",statistically significant increase in survival of U937 cells
same,Inhibition of TRPM2 channels,TRPM2; La3+ ≦100 μM,not inhibited
same,Inhibition of TRPM7 channels at 10 μM,TRPM7,failed to inhibit TRPM7 channels
same,Concentration required to inhibit TRPM7,TRPM7,1 mM
tunicamycin,Cell death in suspension and fibronectin adhered tumor cells,U937 cells [2],dose dependent increase in cell death
same,Difference in viability between suspension and fibronectin-adherent cells,U937 cells [2],no significant difference
C[C@H]1CCC/C=C/[C@@H]2C[C@H](O)C[C@H]2[C@H](O)/C=C/C(=O)O1 [Brefeldin A],Cell death in suspension and fibronectin adhered tumor cells,U937 cells [2],dose dependent increase in cell death
same,Difference in viability between suspension and fibronectin-adherent cells,U937 cells [2],no significant difference
"NCCOB(c1ccccc1)c1ccccc1 [2-APB, 2-aminoethoxydiphenyl borate]",Amplification of tipifarnib-evoked increase in [Ca2+]i by 2-APB,"8226 cells; 8226 cells, 5 μM tipifarnib with 100 μM 2-APB",~400%
same,Amplification of tipifarnib-evoked increase in [Ca2+]i by 2-APB,8226/R5 cells,~250%
same,Effect of modulator on tipifarnib-induced growth inhibition / cell survival,U937 cells [1],enhanced cell death
same,Block of TRPM2 channels at 150 μM (second study),"TRPM2; HEK-293 cells, 150 μM 2-APB",not blocked
same,IC50,"TRPM2; heterologously expressed in HEK-293 cells, read-out: IC50 for block of TRPM2 channels",1000 nM
same,Block of TRPM7-evoked currents,TRPM7; 100 μM 2-APB,~25%
same,Modulation of Orai1 channels by 2-APB,Orai 1 channels,potentiated at concentrations of 2-APB below 5 μM but inhibited by higher concentrations
same,Modulation of Orai2 by 2-APB,Orai2,transient potentiation at concentrations of 2-APB≦20 μM and also blocked by higher concentrations
same,Modulation of Orai3 channels by 2-APB,Orai3 channels,potentiated by 2-APB even at 50 μM and do not seem to be blocked by concentrations as high as 200 μM
C/C=C(/C)C(=O)O[C@H]1C(C)=C2[C@H]([C@@H]1OC(=O)CCCCCCC)[C@@](C)(OC(C)=O)C[C@H](OC(=O)CCC)[C@@]1(O)[C@H]2OC(=O)[C@@]1(C)O [thapsigargin],Cell death in suspension and fibronectin adhered tumor cells,U937 cells [2],dose dependent increase in cell death
same,Difference in viability between suspension and fibronectin-adherent cells,U937 cells [2],no significant difference
"Cn1cncc1[C@@](N)(c1ccc(Cl)cc1)c1ccc2c(c1)c(-c1cccc(Cl)c1)cc(=O)n2C [tipifarnib, Tipifarnib]",Amplitude of the [Ca2+]i response,8226 cells; 5 µM,215 ± 17 nM
same,"Change in [Ca2+]i in 8226 cells, greater than in 8226/R5 cells",8226 cells; 5 μM tipifarnib,> 250%
same,Increase in [Ca2+]i relative to vehicle alone (DMSO),U937 cells [3],more than 5 fold
[Gd+3] [Gd^3+],Inhibition of TRPM7 channels at 10 μM,TRPM7,failed to inhibit TRPM7 channels
same,Concentration required to inhibit TRPM7,TRPM7,1 mM
COC(=O)[C@H](CCSC)NC(=O)c1ccc(NC[C@@H](N)CS)cc1-c1ccccc1 [FTI-277],Elevation of [Ca2+]i,U937 cells [4],failed to stimulate elevations in [Ca^2+]i

# — patent US8362033B1, “Compounds and methods to dysregulate CA2+ homeostasis for cancer treatment” (University of South Florida, priority 2008, dated 2013)
